# Measured values taken from patent US20070280957A1, “Change of the Load State of Mhc Molecules” (priority 2004, published 2007).
# How the values were obtained:
# [1] = biological target: T1, soluble HLA-DR1 (DRA1*0101, DRB1*0101) (Homo sapiens, UniProt P01903+P01911, A100R/D57E/F55L/F60I/F76Y/I96L/L162R/M171V/P40L/Q125E/R42F/V115G/Y59C); assay: Loading of empty soluble HLA-DR1 with biotinylated HA306-318 peptide, sandwich ELISA; format: biochemical
# T1 construct: shortened α- and […]-chains without the cytoplasmatic and transmembrane portion of the MHC molecule; made in house; host or cells: S2 insect cells
# Protocol: In order to monitor catalysis of the loading of HLA-DR molecules by compounds of formulae I, IA, II, III and IV1 to IV3, empty, soluble DR molecules were incubated with biotinylated, high-affinity peptide, and these were then detected in a sandwich ELISA for the MHC complexes.
# All the batches were then adjusted to a final volume of 10 μl with 2% BSA-PO4^3− buffer (in the case of HLA-DR1 only with PO4^3− buffer). The reaction was started by incubation at 37° C. in a thermocycler. After 40 minutes, the incubation was terminated and the loading reaction was stopped by storage on ice and addition of 50 μl of ice-cold 1% BSA-PBS.
# The detection of bound peptide was carried out by means of a sandwich ELISA. […] Between these steps, the plate was washed twice with PBS-0.05% Tween with the aid of a PW plate-washing device (Tecan Industries) and, before filling with fresh solution, all remaining liquid residues were removed by tapping on Scott®Natura paper towels (Hakle-Kimberly Deutschland GmbH). After blocking of non-specific binding sites, the plate was washed three times and filled with 50 μl/well of 1% BSA-PBS. 2×25 μl per reaction batch were transferred to the plate as double values and were carefully mixed thereon (total volume per well: 75 μl). From each filled series, a further 25 μl/well were then again titrated on the plate in a series of two-stage dilutions (final volume per well: 50 μl). The plates so filled were then stored for 2 hours at 4° C. under stationary conditions. Each plate was then washed six times as described above and filled with 80 μl/well of Eu^3+-streptavidin staining solution (europium-streptavidin stock solution diluted 1:10,000 with 1% BSA-PBS) and incubated for 30 minutes at room temperature (RT). After washing for a further eight times, 100 μl/well of fluorescence-activated solution (enhancer) were then added and the signal was measured by means of a Victor^2-multilabelcounter (Wallac Oy) at an excitation wavelength of 340 nm and an emission wavelength of 615 nm in time-resolving mode.
# The following experiment was therefore carried out. One catalyst in a fixed concentration of 0.05 mM was introduced into each of a number of batches for loading HLA-DR1 with HA-biot. The same concentration of a second catalyst was then added to each batch. As controls, 1×1% DMSO was added and, as negative control, a reaction mixture was prepared with 2×1% DMSO. The reaction mixtures were then incubated for 40 minutes as already described and the load was measured in a sandwich ELISA.
# The resulting load was then determined in an ELISA using biotinylated peptide (see FIG. 1).
# The amount of peptide/MHC complexes formed within this time was then determined by means of an ELISA assay (capture antibody: anti-HLA-DR; detection: fluorescent-labelled streptavidin). The activities of the individual compounds were grouped on the basis of the dose/activity curves obtained thereby.
# HLA-DR1 (DRB1*0101) = biological target: T2, HLA-DR1 (DRB1*0101) (Homo sapiens, UniProt P01903+P01911, A100R/D57E/F55L/F60I/F76Y/I96L/L162R/M171V/P40L/Q125E/R42F/V115G/Y59C); assay: HLA-DR1-restricted T-cell response after catalysed loading of 721.221 cells (EvHA/X5, hCII19.3 T-cells); format: cell-based; conditions: for catalytic activity on HLA-DR1, dose-activity curves of T-cell stimulation: HA306-318 on 721.221 cells, EvHA/X5 T-cells
# T2 construct: HLA-DR-expressing 721.221 cells; endogenous in cells; host or cells: 721.221 cells
# Source text: In the present comparison test, the enhancement of the T-cell response by catalysis of the loading of HLA-expressing cells was investigated. […] Either HA306-318 (see also FIG. 3, left-hand panel) or CO260-273 (see also FIG. 3, right-hand panel) was used as peptide antigen. After the loading, the cells were washed and used to stimulate EvHA/X5 and hCII19.3 cells, respectively.
# In order to investigate the catalysis of a HLA-DR1 (DRB1*0101)-restricted T-cell response by various catalytically active adamantyl compounds, dose-activity curves of the catalysis of a HLA-DR1 (DRB1*0101)-restricted T-cell response were prepared. The experiment was carried out analogously to Comparison Experiment 3.3, the peptide antigen HA306-318 being loaded onto 721.221 cells in order thereby to stimulate EvHA/X5 T-cells. […] Because the position of the dose-activity curves is evidently also determined by the side chain, a modulating activity can be attributed thereto.
# [2] = biological target: T3, HLA-DR1 (DRB1*0101) on L57.23 cells (Homo sapiens, UniProt P01903+P01911, A100R/D57E/F55L/F60I/F76Y/I96L/L162R/M171V/P40L/Q125E/R42F/V115G/Y59C); assay: Loading of HLA-DR1 on the cell surface of fibroblast cells with biotinylated peptide, flow cytometry; format: cell-based; conditions: 4 hours, 37° C., active at markedly less than a tenth of the pCP concentration
# T3 construct: expressed in transfected cells; host or cells: L57.23 fibroblast cells
# Protocol: (§1) The catalytic properties of found substances on the loading of MHC class II molecules located on cells was determined in cell loading experiments. To this end, from 50,000 to 100,000 cells in 50 μl of DMEM were mixed with 50 μl of 24 μM HA-biot. dissolved in DMEM and 50 μl of catalyst solution (different concentrations dissolved in DMEM with a maximum DMSO content of 3%) and incubated for 4 hours at 37° C. and 10% CO2. As controls, only 50 μl of peptide solution and 50 μl of DMEM were added to cells in several batches. At the end of the incubation time, the cells were centrifuged off for 5 minutes at 1300 rpm, and supernatant medium was removed. […] After removal of the supernatant, the cell pellets were again detached and taken up in 50 μl/well of streptavidin-phycoerythrin solution (SA-PE stock solution (1 mg/ml) diluted 1:200 with 2% FCS-PBS). Staining was carried out for 30 minutes at 4° C. with the exclusion of light, in order to avoid excessive decomposition of the fluorescent dyes. […] The cells were then analysed using a continuous-flow cytometer. […]
# [3] = biological target: T4, HLA-DR4 (DRB1*0401) on L243.6 cells (Homo sapiens, UniProt P01903+P01911, A100K/A169T/F76Y/I96L/K127E/L162R/M171V/N62H/P40V/Q125Y/R42H/S133A/S149N/S66Y/V115G/V209L/W38E); assay: Loading of HLA-DR4 on the cell surface of fibroblast cells with biotinylated peptide, flow cytometry; format: cell-based; conditions: 4 hours, 37° C., active at markedly less than a tenth of the pCP concentration
# T4 construct: expressed in transfected cells; host or cells: L243.6 fibroblast cells
# Protocol: as §1
# [4] = biological target: T5, empty, soluble HLA-DR1 complexes (Homo sapiens, UniProt P01903+P01911, A100R/D57E/F55L/F60I/F76Y/I96L/L162R/M171V/P40L/Q125E/R42F/V115G/Y59C); assay: High-throughput HLA-DR1 loading test of the substance library and validation of hits; format: biochemical; conditions: final concentration of 0.4 mM
# T5 construct: shortened α- and […]-chains without the cytoplasmatic and transmembrane portion of the MHC molecule; made in house; host or cells: S2 insect cells
# Protocol: The compounds of formulae I, IA, II, III and IV1 to IV3 to be tested were supplied in 384-well plates in the form of a 160 mM starting library, dissolved in DMSO, from which an aliquot library had to be prepared. By manually removing 2 μl/well and diluting with 38 μl/well of DMSO, a 8 mM stock library was prepared, which was used for all further tests. In order to analyse the compounds of formulae I, IA, II, III and IV1 to IV3 that were present for their effect on MHC class II molecules, a high-throughput method based on a HLA-DR1 loading test was used. To this end, two 384-well Nunc-Maxisorp plates (ELISA plates) per library plate were coated overnight at 4° C. with 60 μl/well of monoclonal anti-HLA-DR antibody (L243 stock solution (1 mg/ml) diluted 1:500 in 100 mM NaHCO3). The plates were then washed three times by immersion in PBS-0.05% Tween solution and removal of air bubbles by tapping the plate against the wall of the washing vessel. Remaining washing solution was removed by beating the plates on paper towels, and 80 μl/well of 2% BSA-PBS were introduced. Non-specific binding was to be prevented by incubation at 37° C. for at least one hour. […] Excess staining solution was then removed by washing eight times with PBS-0.05% Tween, and 80 μl/well of fluorescence-activated solution (enhancer) were added manually by means of a pipette. […]
# [5] = biological target: T6, soluble HLA-DR1 (DRB1*0101) (Homo sapiens, UniProt P01903+P01911, A100R/D57E/F55L/F60I/F76Y/I96L/L162R/M171V/P40L/Q125E/R42F/V115G/Y59C); assay: MHC loading assay for identifying immunotoxic compounds (4 hours, ELISA); format: biochemical; conditions: biotinylated HA306-318
# T6 construct: shortened α- and […]-chains without the cytoplasmatic and transmembrane portion of the MHC molecule; made in house; host or cells: S2 insect cells
# MHC class II = conditions: prior-art small molecules with H-donor properties; cited from earlier work
molecule,measurement,setting,value
Oc1ccccc1-c1ccccc1 [2-HBP],"relative increase in the load, amount doubled",[1]; 0.05 mM + same concentration of the same catalyst,increases
same,relative increase in the load,"[1]; 0.05 mM catalyst + 1% DMSO, 40 minutes",about 10%
"COc1ccc2c(c1)OCC2=NO [#3651, 6-methoxybenzofuran-3(2H)-one-oxime]","catalytic activity on HLA-DR1, dose-activity curves of T-cell stimulation",HLA-DR1 (DRB1*0101),weaker but still exhibits higher activity than pCP
"CC(C)(O)C1CCC2(C)C(C1)C2(Cl)Cl (stereo not drawn) [#4230, 2-(7,7-dichloro-6-methyl-bicyclo[4.1.0]heptan-3-yl)-propan-2-ol]","catalytic activity on HLA-DR1, dose-activity curves of T-cell stimulation",HLA-DR1 (DRB1*0101),corresponds approximately to that of adamantylethanol
"NNC(=O)c1cc(C23CC4CC(CC(C4)C2)C3)n[nH]1 [AdCaPy, 3-(1-adamantyl)-5-carbohydrazide pyrazole]","loading of cells with HA306-318, dose-activity curves compared with pCP",[2],substantially more active than pCP
same,"loading of cells with HA306-318, dose-activity curves compared with pCP",[3],substantially more active than pCP
same,immune response of HLA-DR1-restricted T-cells,HLA-DR1 (DRB1*0101); HA306-318 (EvHA/X5) or CO260-273 (hCII19.3) loaded onto 721.221 cells,markedly enhanced
"Oc1cc(Cl)c(Cl)cc1O [DCC, 1,2-dichloro-4,5-dihydroxybenzene, reference compound]","catalytic activity of phenol/aniline compounds, comparison of dose-activity curves","[1]; accelerated loading of soluble HLA-DR1 with HA306-318, compared with pCP",slightly increased activity
same,load signal (threshold value of library analysis),[4],"15,000 counted events"
"OCC(O)CNc1ccccc1 (stereo not drawn) [III 36, 3-N-phenylaminopropanediol]",acceleration of the loading of MHC molecules with peptide ligands,[5],able to accelerate the loading of MHC molecules with peptide ligands
same,activity compared with pCP,[5],markedly lower than that of pCP
CCCO [n-propanol],concentration required for use,MHC class II,over 200 mM
Oc1ccccc1 [phenol],concentration required for use,MHC class II,30 mM
dichlorophenylhydroxyiminoacetamide [DPHIA],catalytic activity in the ELISA,[1],similarly good results as AdaEtOH
same,toxicity,L57.23 cells,even lower toxic effects than AdaEtOH or 4-HBP
